Measured values published in PMC8080777, “Discovery, optimization, and evaluation of non-bile acid FXR/TGR5 dual agonists” (Scientific Reports, 2021).

Molecular target: T1, FXR (Homo sapiens, UniProt Q96RI1)
T1 construct: host or cells: CHO cells
T1 sequence (Q96RI1 1-486): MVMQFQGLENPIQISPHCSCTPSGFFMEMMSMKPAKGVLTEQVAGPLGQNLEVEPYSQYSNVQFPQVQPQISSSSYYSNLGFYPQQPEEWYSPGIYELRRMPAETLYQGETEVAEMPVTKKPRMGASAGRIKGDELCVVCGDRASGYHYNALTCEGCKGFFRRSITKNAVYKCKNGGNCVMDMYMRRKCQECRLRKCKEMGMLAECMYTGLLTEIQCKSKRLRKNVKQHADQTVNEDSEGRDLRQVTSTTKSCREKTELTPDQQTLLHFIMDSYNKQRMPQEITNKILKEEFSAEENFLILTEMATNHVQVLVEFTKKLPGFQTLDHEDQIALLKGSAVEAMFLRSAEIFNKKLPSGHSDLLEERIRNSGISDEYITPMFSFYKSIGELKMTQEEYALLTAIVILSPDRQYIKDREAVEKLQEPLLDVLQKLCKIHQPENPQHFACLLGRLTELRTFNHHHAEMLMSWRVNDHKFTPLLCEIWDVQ
Assay: CHO cell-based FXR luciferase reporter assay (Indigo Biosciences)
Conditions: for EC50: 4 parameter logistic fit; for Emax: CHO

Row | FXR Efficacy (%) (0.1 µM) (% vs OCA 1 µM as 100%) | FXR Efficacy (%) (1 µM) (% vs OCA 1 µM as 100%) | FXR Efficacy (%) (10 µM) (10 µM, % vs OCA 1 µM as 100%) | FXR agonist activity (in words) | EC50 [µM] | Emax [%] | Structure (SMILES)
1 | 12.8 | 96.6 | 130.9 | – | – | – | COC(=O)/C=C/c1cccc(N(Cc2ccc(-c3ccc(N(C)C)cc3)cc2)C(=O)C2CCCCC2)c1 [Compound 7, Fexaramine, reference compound]
2 | 57.1 | 98.8 | – | strong dual agonist potencies | 0.19 | 28 | COc1cc(Cl)cc(N(CC23CCC(c4ccc(OC)c(C#N)c4)(CC2)CC3)C(=O)c2ccncc2C)c1 [Compound 20p]
3 | 85.7 | 79.6 | – | strong dual agonist potencies | 0.079 | 33 | COc1ccc(C23CCC(CN(C(=O)c4ccncc4C)c4cc(Cl)cc(Cl)c4)(CC2)CC3)cc1C#N [Compound 20q]
